System: 677734-321-R-J1-PDC complex spheroid viability
Assay: Anticancer human tumor 677734-321-R-J1-PDC patient-derived soft tissue sarcoma cell line growth inhibition [POLQ]
Settings: for IC50: curve of first compound; for viability, T/C: stronger effect = lower value
Summary of the method: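 Three-cell-type spheroids modelling solid tumor plus stroma served as the readout system; POL inhibitors were tested individually and in combination, concentration ranges set by clinical Cmax where known.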

[1] = second compound 0.0316 µM, first compound 0.0316 µM
[2] = second compound 0.0316 µM, first compound 0.1 µM
[3] = second compound 0.0316 µM, first compound 0.316 µM
[4] = second compound 0.0316 µM, first compound 1 µM
[5] = second compound 0.0316 µM, first compound 3.16 µM
[6] = second compound 0.0316 µM, first compound 10 µM
[7] = second compound 0.1 µM, first compound 0.0316 µM
[8] = second compound 0.1 µM, first compound 0.1 µM
[9] = second compound 0.1 µM, first compound 0.316 µM
[10] = second compound 0.1 µM, first compound 1 µM
[11] = second compound 0.1 µM, first compound 3.16 µM
[12] = second compound 0.1 µM, first compound 10 µM
[13] = second compound 0.316 µM, first compound 0.0316 µM
[14] = second compound 0.316 µM, first compound 0.1 µM
[15] = second compound 0.316 µM, first compound 0.316 µM
[16] = second compound 0.316 µM, first compound 1 µM
[17] = second compound 0.316 µM, first compound 3.16 µM
[18] = second compound 0.316 µM, first compound 10 µM
[19] = second compound 1 µM, first compound 0.0316 µM
[20] = second compound 1 µM, first compound 0.1 µM
[21] = second compound 1 µM, first compound 0.316 µM
[22] = second compound 1 µM, first compound 1 µM
[23] = second compound 1 µM, first compound 3.16 µM
[24] = second compound 1 µM, first compound 10 µM
[25] = second compound 3.16 µM, first compound 0.0316 µM
[26] = second compound 3.16 µM, first compound 0.1 µM
[27] = second compound 3.16 µM, first compound 0.316 µM
[28] = second compound 3.16 µM, first compound 1 µM
[29] = second compound 3.16 µM, first compound 3.16 µM
[30] = second compound 3.16 µM, first compound 10 µM
[31] = second compound 10 µM, first compound 0.0316 µM
[32] = second compound 10 µM, first compound 0.1 µM
[33] = second compound 10 µM, first compound 0.316 µM
[34] = second compound 10 µM, first compound 1 µM
[35] = second compound 10 µM, first compound 3.16 µM
[36] = second compound 10 µM, first compound 10 µM
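Also: spheroids exposed to compounds for one week.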
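For viability, T/C in this document: 100% = vehicle DMSO treated spheroids.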

## CCc1cc2c(N3CCc4c(cc(Cn5ccnc5)cc4-c4cn(C)nc4C(F)(F)F)C3=O)cc(C)nc2c(OC)n1 + COC1C(OC(N)=O)C(O)C(Oc2ccc3c(O)c(NC(=O)c4ccc(O)c(CC=C(C)C)c4)c(=O)oc3c2C)OC1(C)C
Second compound 0.0316 µM
  IC50: > 10 µM
Second compound 0.1 µM
  IC50: > 10 µM
Second compound 0.316 µM
  IC50: > 10 µM
Second compound 1 µM
  IC50: > 10 µM
Second compound 3.16 µM
  IC50: > 10 µM
Second compound 10 µM
  IC50: > 10 µM
[1]
  viability, T/C: 111%
[2]
  viability, T/C: 110%
[3]
  viability, T/C: 94.5%
[4]
  viability, T/C: 98.2%
[5]
  viability, T/C: 77.7%
[6]
  viability, T/C: 53.4%
[7]
  viability, T/C: 106%
[8]
  viability, T/C: 111%
[9]
  viability, T/C: 97.7%
[10]
  viability, T/C: 98.8%
[11]
  viability, T/C: 73.7%
[12]
  viability, T/C: 59.3%
[13]
  viability, T/C: 112%
[14]
  viability, T/C: 108%
[15]
  viability, T/C: 98.7%
[16]
  viability, T/C: 96.9%
[17]
  viability, T/C: 79.5%
[18]
  viability, T/C: 49.4%
[19]
  viability, T/C: 124%
[20]
  viability, T/C: 105%
[21]
  viability, T/C: 108%
[22]
  viability, T/C: 93.4%
[23]
  viability, T/C: 75.5%
[24]
  viability, T/C: 52.9%
[25]
  viability, T/C: 109%
[26]
  viability, T/C: 111%
[27]
  viability, T/C: 103%
[28]
  viability, T/C: 98.2%
[29]
  viability, T/C: 82%
[30]
  viability, T/C: 54.4%
[31]
  viability, T/C: 108%
[32]
  viability, T/C: 110%
[33]
  viability, T/C: 98.4%
[34]
  viability, T/C: 91.4%
[35]
  viability, T/C: 67.3%
[36]
  viability, T/C: 50.8%

## CCc1cc2c(N3CCc4c(cc(Cn5ccnc5)cc4-c4cn(C)nc4C(F)(F)F)C3=O)ccnc2c(OC)n1 + COC1C(OC(N)=O)C(O)C(Oc2ccc3c(O)c(NC(=O)c4ccc(O)c(CC=C(C)C)c4)c(=O)oc3c2C)OC1(C)C
Second compound 0.0316 µM
  IC50: > 10 µM
Second compound 0.1 µM
  IC50: > 10 µM
Second compound 0.316 µM
  IC50: > 10 µM
Second compound 1 µM
  IC50: > 10 µM
Second compound 3.16 µM
  IC50: > 10 µM
Second compound 10 µM
  IC50: > 10 µM
[1]
  viability, T/C: 111%
[2]
  viability, T/C: 108%
[3]
  viability, T/C: 105%
[4]
  viability, T/C: 106%
[5]
  viability, T/C: 88.7%
[6]
  viability, T/C: 62.5%
[7]
  viability, T/C: 108%
[8]
  viability, T/C: 110%
[9]
  viability, T/C: 109%
[10]
  viability, T/C: 104%
[11]
  viability, T/C: 92.2%
[12]
  viability, T/C: 62.6%
[13]
  viability, T/C: 117%
[14]
  viability, T/C: 105%
[15]
  viability, T/C: 98.4%
[16]
  viability, T/C: 98.7%
[17]
  viability, T/C: 84.8%
[18]
  viability, T/C: 64.6%
[19]
  viability, T/C: 113%
[20]
  viability, T/C: 103%
[21]
  viability, T/C: 96.1%
[22]
  viability, T/C: 100%
[23]
  viability, T/C: 83.5%
[24]
  viability, T/C: 58.6%
[25]
  viability, T/C: 117%
[26]
  viability, T/C: 101%
[27]
  viability, T/C: 108%
[28]
  viability, T/C: 97.5%
[29]
  viability, T/C: 93.1%
[30]
  viability, T/C: 63.6%
[31]
  viability, T/C: 112%
[32]
  viability, T/C: 106%
[33]
  viability, T/C: 109%
[34]
  viability, T/C: 102%
[35]
  viability, T/C: 81.6%
[36]
  viability, T/C: 65%

## COc1cc2cc(C(=O)CCC(=O)O)sc2cc1OC + COC1C(OC(N)=O)C(O)C(Oc2ccc3c(O)c(NC(=O)c4ccc(O)c(CC=C(C)C)c4)c(=O)oc3c2C)OC1(C)C
Second compound 0.0316 µM
  IC50: > 10 µM
Second compound 0.1 µM
  IC50: > 10 µM
Second compound 0.316 µM
  IC50: > 10 µM
Second compound 1 µM
  IC50: > 10 µM
Second compound 3.16 µM
  IC50: > 10 µM
Second compound 10 µM
  IC50: > 10 µM
[1]
  viability, T/C: 104%
[2]
  viability, T/C: 99.5%
[3]
  viability, T/C: 103%
[4]
  viability, T/C: 96.9%
[5]
  viability, T/C: 105%
[6]
  viability, T/C: 102%
[7]
  viability, T/C: 110%
[8]
  viability, T/C: 99.6%
[9]
  viability, T/C: 97.5%
[10]
  viability, T/C: 107%
[11]
  viability, T/C: 106%
[12]
  viability, T/C: 102%
[13]
  viability, T/C: 113%
[14]
  viability, T/C: 106%
[15]
  viability, T/C: 98.8%
[16]
  viability, T/C: 102%
[17]
  viability, T/C: 111%
[18]
  viability, T/C: 102%
[19]
  viability, T/C: 109%
[20]
  viability, T/C: 102%
[21]
  viability, T/C: 104%
[22]
  viability, T/C: 109%
[23]
  viability, T/C: 105%
[24]
  viability, T/C: 102%
[25]
  viability, T/C: 108%
[26]
  viability, T/C: 104%
[27]
  viability, T/C: 114%
[28]
  viability, T/C: 110%
[29]
  viability, T/C: 109%
[30]
  viability, T/C: 103%
[31]
  viability, T/C: 112%
[32]
  viability, T/C: 101%
[33]
  viability, T/C: 109%
[34]
  viability, T/C: 99%
[35]
  viability, T/C: 111%
[36]
  viability, T/C: 111%

## COc1ccc([C@@H](O)c2cc(-c3ncnc4cc(N5CCOCC5)ccc34)c(F)cc2Cl)nn1 + COC1C(OC(N)=O)C(O)C(Oc2ccc3c(O)c(NC(=O)c4ccc(O)c(CC=C(C)C)c4)c(=O)oc3c2C)OC1(C)C
Second compound 0.0316 µM
  IC50: > 10 µM
Second compound 0.1 µM
  IC50: 9.81 µM
Second compound 0.316 µM
  IC50: 9.58 µM
Second compound 1 µM
  IC50: > 10 µM
Second compound 3.16 µM
  IC50: > 10 µM
Second compound 10 µM
  IC50: > 10 µM
[1]
  viability, T/C: 106%
[2]
  viability, T/C: 112%
[3]
  viability, T/C: 99.7%
[4]
  viability, T/C: 105%
[5]
  viability, T/C: 82.1%
[6]
  viability, T/C: 56.9%
[7]
  viability, T/C: 112%
[8]
  viability, T/C: 107%
[9]
  viability, T/C: 100%
[10]
  viability, T/C: 98.2%
[11]
  viability, T/C: 83.8%
[12]
  viability, T/C: 48.8%
[13]
  viability, T/C: 110%
[14]
  viability, T/C: 104%
[15]
  viability, T/C: 104%
[16]
  viability, T/C: 98.4%
[17]
  viability, T/C: 82.5%
[18]
  viability, T/C: 48.6%
[19]
  viability, T/C: 111%
[20]
  viability, T/C: 102%
[21]
  viability, T/C: 97.3%
[22]
  viability, T/C: 100%
[23]
  viability, T/C: 79.4%
[24]
  viability, T/C: 52.5%
[25]
  viability, T/C: 107%
[26]
  viability, T/C: 106%
[27]
  viability, T/C: 106%
[28]
  viability, T/C: 93.1%
[29]
  viability, T/C: 79.5%
[30]
  viability, T/C: 56.1%
[31]
  viability, T/C: 111%
[32]
  viability, T/C: 105%
[33]
  viability, T/C: 104%
[34]
  viability, T/C: 108%
[35]
  viability, T/C: 85.1%
[36]
  viability, T/C: 50.9%

From PubChem BioAssay AID1963842 (Molecular Pharmacology Branch, DTP, NCI, 2024)
